Source: ChEMBL document CHEMBL1123040, “Molecular mechanism of action of 5,6-dihydroxytryptamine. Synthesis and biological evaluation of 4-methyl-, 7-methyl-, and 4,7-dimethyl-5,6-dihydroxytryptamines” (J Med Chem, 1985)

Assays:
[1] = biological target: T1, Sodium-dependent serotonin transporter (Rattus norvegicus, UniProt P31652); experiment: Inhibitory activity against incorporation of [3H]5-HT transporter uptake into the differentiated N-2a cells.; type: cell-based
[2] = biological target: T1, Sodium-dependent serotonin transporter; experiment: Inhibitory activity against incorporation of Serotonin transporter uptake into the differentiated N-2a cells.; type: cell-based

T1 sequence (P31652 whole entry): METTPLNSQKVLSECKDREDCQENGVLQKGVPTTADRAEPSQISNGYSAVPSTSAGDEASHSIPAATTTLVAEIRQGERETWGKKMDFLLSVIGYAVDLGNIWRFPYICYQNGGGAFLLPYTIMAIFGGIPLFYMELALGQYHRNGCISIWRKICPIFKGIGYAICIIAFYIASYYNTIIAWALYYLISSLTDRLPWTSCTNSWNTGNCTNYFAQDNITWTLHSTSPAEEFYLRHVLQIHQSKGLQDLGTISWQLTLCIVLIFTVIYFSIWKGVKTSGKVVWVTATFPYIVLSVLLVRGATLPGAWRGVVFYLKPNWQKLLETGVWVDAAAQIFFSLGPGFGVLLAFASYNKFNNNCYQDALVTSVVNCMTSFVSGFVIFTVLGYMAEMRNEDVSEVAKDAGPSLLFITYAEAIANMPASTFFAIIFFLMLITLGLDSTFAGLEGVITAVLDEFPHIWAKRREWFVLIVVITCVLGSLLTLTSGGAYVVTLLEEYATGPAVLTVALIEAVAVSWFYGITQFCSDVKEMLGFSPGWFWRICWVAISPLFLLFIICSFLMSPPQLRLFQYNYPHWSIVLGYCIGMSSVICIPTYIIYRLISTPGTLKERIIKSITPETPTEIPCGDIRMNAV

Structure (SMILES)	IC50 [1] [µM]	IC50 [2] [µM]
Cc1c(O)c(O)cc2[nH]cc(CCN)c12	23	
Cc1c(O)c(O)c(C)c2c(CCN)c[nH]c12	19.7	
Cc1c(O)c(O)cc2c(CCN)c[nH]c12	51.8	
NCCc1c[nH]c2cc(O)c(O)cc12		6
